Patent US11912671B1, “Ethyl 3-(5-(3-fluorophenyl)-4-phenyl-4H-1,2,4- triazol-3-ylthio)propanoate as an antimicrobial compound” (KING FAISAL UNIVERSITY, priority 2023, dated 2024)

Key:
Type in all cases: cell-based
Bacillus cereus = assay: agar plate disc-diffusion, antibacterial inhibition zone; conditions: nutrient agar, 37° C., 48 hours
Procedure: (§1) The agar plate disc-diffusion method was applied. […] The discs were then placed onto the surface of agar plates (nutrient agar for bacteria and Sabouraud's dextrose agar for fungi) seeded with the test organism. Each plate contained 15 mL of the agar medium, previously seeded with 0.2 mL of the broth culture of each organism pregrown for 18 hours. The plates were incubated at 37° C. for 48 hours, and 72 hours for fungi. The inhibition zones were measured in mm. Discs impregnated with DMSO were used as a control, and its inhibition zone was subtracted from the tested compound actual inhibition zone.

Escherichia coli = assay: as above; conditions: nutrient agar, 37° C., 48 hours
Procedure: as §1

Pseudomonas aeruginosa = assay: as above; conditions: nutrient agar, 37° C., 48 hours
Procedure: as §1

Staphylococcus aureus = assay: as above; conditions: nutrient agar, 37° C., 48 hours
Procedure: as §1

Aspergillus flavus = assay: agar plate disc-diffusion, antifungal inhibition zone; conditions: Sabouraud's dextrose agar, 72 hours
Procedure: as §1

[1] = tested on: Chrysosporium keratinophilum; assay: as above; conditions: Sabouraud's dextrose agar, 72 hours
Procedure: as §1

[2] = A = concentration of comp. = 10,000 μL
[3] = B = concentration of comp. = 30,000 μL
[4] = C = concentration of comp. = 50,000 μL

CCOC(=O)CCSc1nnc(-c2cccc(F)c2)n1-c1ccccc1 [III, ethyl 3-(5-(3-fluorophenyl)-4-phenyl-4H-1,2,4-triazol-3-ylthio)propanoate]
inhibition zone, Bacillus Cereus, A (Bacillus cereus; [2]): 25 mm
inhibition zone, Bacillus Cereus, B (Bacillus cereus; [3]): 28 mm
inhibition zone, Bacillus Cereus, C (Bacillus cereus; [4]): 38 mm
inhibition zone, Escherichia coli, A (Escherichia coli; [2]): 27 mm
inhibition zone, Escherichia coli, B (Escherichia coli; [3]): 36 mm
inhibition zone, Escherichia coli, C (Escherichia coli; [4]): 53 mm
inhibition zone, Pseudomonas aeruginosa, A (Pseudomonas aeruginosa; [2]): 26 mm
inhibition zone, Pseudomonas aeruginosa, B (Pseudomonas aeruginosa; [3]): 29 mm
inhibition zone, Pseudomonas aeruginosa, C (Pseudomonas aeruginosa; [4]): 46 mm
inhibition zone, Staphylococcus aureus, A (Staphylococcus aureus; [2]): 17 mm
inhibition zone, Staphylococcus aureus, B (Staphylococcus aureus; [3]): 21 mm
inhibition zone, Staphylococcus aureus, C (Staphylococcus aureus; [4]): 30 mm
inhibition zone, Aspergillus flavus, A (Aspergillus flavus; [2]): 25 mm
inhibition zone, Aspergillus flavus, B (Aspergillus flavus; [3]): 28 mm
inhibition zone, Aspergillus flavus, C (Aspergillus flavus; [4]): 34 mm
inhibition zone, Chrysosporium keratinophilum, A [1, 2]: 26 mm
inhibition zone, Chrysosporium keratinophilum, B [1, 3]: 28 mm
inhibition zone, Chrysosporium keratinophilum, C [1, 4]: 46 mm
